Patent publication US7297708B2, “Heteroaromatic substituted cyclopropane as corticotropin releasing hormone ligands” (Bristol-Myers Squibb Company, priority 2001, dated 2007)

melting point: 46 to 48 °C
SMILES: COc1ccccc1C1(c2ncc(C)c(-c3ccc(Cl)cc3Cl)n2)CC1 [Compound 11, 4-(2,4-Dichloro-phenyl)-2-[1-(2-methoxy-phenyl)-cyclopropyl]-5-methyl-pyrimidine]
